pIC50: −log10 of the molar value.
Test system: 624824-186-R-J2-PDC multicell spheroids, viability
Experiment: Anticancer human tumor 624824-186-R-J2-PDC patient-derived colon adenocarcinoma cell line growth inhibition [PI3K]
Conditions: for pIC50: curve of first compound; for viability, T/C: stronger effect = lower value
Procedure, shortened: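 High-throughput combination screen: PI3K inhibitors crossed with targeted small molecules on complex spheroids of tumor cells, HUVEC and MSCs at 37 degrees C, 5% CO2. Top concentration was at or near clinical Cmax (otherwise 10 microM), with half-log decrements.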

[1] = second compound 0.0316 µM, first compound 0.0316 µM
[2] = second compound 0.0316 µM, first compound 0.1 µM
[3] = second compound 0.0316 µM, first compound 0.316 µM
[4] = second compound 0.0316 µM, first compound 1 µM
[5] = second compound 0.0316 µM, first compound 3.16 µM
[6] = second compound 0.0316 µM, first compound 10 µM
[7] = second compound 0.1 µM, first compound 0.0316 µM
[8] = second compound 0.1 µM, first compound 0.1 µM
[9] = second compound 0.1 µM, first compound 0.316 µM
[10] = second compound 0.1 µM, first compound 1 µM
[11] = second compound 0.1 µM, first compound 3.16 µM
[12] = second compound 0.1 µM, first compound 10 µM
[13] = second compound 0.316 µM, first compound 0.0316 µM
[14] = second compound 0.316 µM, first compound 0.1 µM
[15] = second compound 0.316 µM, first compound 0.316 µM
[16] = second compound 0.316 µM, first compound 1 µM
[17] = second compound 0.316 µM, first compound 3.16 µM
[18] = second compound 0.316 µM, first compound 10 µM
[19] = second compound 1 µM, first compound 0.0316 µM
[20] = second compound 1 µM, first compound 0.1 µM
[21] = second compound 1 µM, first compound 0.316 µM
[22] = second compound 1 µM, first compound 1 µM
[23] = second compound 1 µM, first compound 3.16 µM
[24] = second compound 1 µM, first compound 10 µM
[25] = second compound 3.16 µM, first compound 0.0316 µM
[26] = second compound 3.16 µM, first compound 0.1 µM
[27] = second compound 3.16 µM, first compound 0.316 µM
[28] = second compound 3.16 µM, first compound 1 µM
[29] = second compound 3.16 µM, first compound 3.16 µM
[30] = second compound 3.16 µM, first compound 10 µM
[31] = second compound 10 µM, first compound 0.0316 µM
[32] = second compound 10 µM, first compound 0.1 µM
[33] = second compound 10 µM, first compound 0.316 µM
[34] = second compound 10 µM, first compound 1 µM
[35] = second compound 10 µM, first compound 3.16 µM
[36] = second compound 10 µM, first compound 10 µM
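Further: spheroids exposed to agents for 7 days before viability read.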
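Wherever viability, T/C is given: 100% = DMSO vehicle treated spheroids.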

SMILES: Cn1ncc(Cl)c1-c1cc(C(=O)NC(CN)Cc2cccc(F)c2)sc1Cl (stereo unspecified) + Cc1nc(NC(=O)N2CCCC2C(N)=O)sc1-c1ccnc(C(C)(C)C(F)(F)F)c1
- pIC50 (second compound 0.0316 µM): < 5.00
- pIC50 (second compound 0.1 µM): 5.01
- pIC50 (second compound 0.316 µM): 5.07
- pIC50 (second compound 1 µM): 5.10
- pIC50 (second compound 3.16 µM): 5.35
- pIC50 (second compound 10 µM): 5.52
- viability, T/C [1]: 58.2%
- viability, T/C [2]: 80.2%
- viability, T/C [3]: 77.9%
- viability, T/C [4]: 82.1%
- viability, T/C [5]: 62.6%
- viability, T/C [6]: 56.1%
- viability, T/C [7]: 78.9%
- viability, T/C [8]: 84.3%
- viability, T/C [9]: 70.5%
- viability, T/C [10]: 75.2%
- viability, T/C [11]: 64.9%
- viability, T/C [12]: 49.2%
- viability, T/C [13]: 88.5%
- viability, T/C [14]: 79%
- viability, T/C [15]: 87%
- viability, T/C [16]: 80%
- viability, T/C [17]: 63.5%
- viability, T/C [18]: 47.8%
- viability, T/C [19]: 70.6%
- viability, T/C [20]: 77.8%
- viability, T/C [21]: 86.6%
- viability, T/C [22]: 74%
- viability, T/C [23]: 63.5%
- viability, T/C [24]: 46.8%
- viability, T/C [25]: 84.1%
- viability, T/C [26]: 84.2%
- viability, T/C [27]: 71.1%
- viability, T/C [28]: 62.8%
- viability, T/C [29]: 62.6%
- viability, T/C [30]: 34.7%
- viability, T/C [31]: 80.7%
- viability, T/C [32]: 73.3%
- viability, T/C [33]: 64%
- viability, T/C [34]: 66.8%
- viability, T/C [35]: 49.1%
- viability, T/C [36]: 30.9%

SMILES: Cn1nccc1Nc1nccc(-c2ccn(C(CO)c3ccc(Cl)c(F)c3)c(=O)c2)n1 (stereo unspecified) + Cc1nc(NC(=O)N2CCCC2C(N)=O)sc1-c1ccnc(C(C)(C)C(F)(F)F)c1
- pIC50 (second compound 0.0316 µM): < 5.00
- pIC50 (second compound 0.1 µM): < 5.00
- pIC50 (second compound 0.316 µM): < 5.00
- pIC50 (second compound 1 µM): < 5.00
- pIC50 (second compound 3.16 µM): 5.81
- pIC50 (second compound 10 µM): 6.56
- viability, T/C [1]: 88.2%
- viability, T/C [2]: 79.8%
- viability, T/C [3]: 72.2%
- viability, T/C [4]: 92%
- viability, T/C [5]: 95.7%
- viability, T/C [6]: 101%
- viability, T/C [7]: 68.3%
- viability, T/C [8]: 68.6%
- viability, T/C [9]: 78.5%
- viability, T/C [10]: 81.4%
- viability, T/C [11]: 108%
- viability, T/C [12]: 83.2%
- viability, T/C [13]: 90.1%
- viability, T/C [14]: 72.8%
- viability, T/C [15]: 74%
- viability, T/C [16]: 91.9%
- viability, T/C [17]: 96.3%
- viability, T/C [18]: 81.9%
- viability, T/C [19]: 82.9%
- viability, T/C [20]: 79%
- viability, T/C [21]: 65.5%
- viability, T/C [22]: 74.9%
- viability, T/C [23]: 76.3%
- viability, T/C [24]: 52.3%
- viability, T/C [25]: 80.5%
- viability, T/C [26]: 61.6%
- viability, T/C [27]: 65%
- viability, T/C [28]: 54.6%
- viability, T/C [29]: 44.2%
- viability, T/C [30]: 37.3%
- viability, T/C [31]: 66.4%
- viability, T/C [32]: 58.6%
- viability, T/C [33]: 47.8%
- viability, T/C [34]: 37.8%
- viability, T/C [35]: 19.2%
- viability, T/C [36]: 5.96%

SMILES: Cn1ncnc1[C@H]1c2n[nH]c(=O)c3cc(F)cc(c23)N[C@@H]1c1ccc(F)cc1 + Cc1nc(NC(=O)N2CCCC2C(N)=O)sc1-c1ccnc(C(C)(C)C(F)(F)F)c1
- pIC50 (second compound 0.0316 µM): < 7.00
- pIC50 (second compound 0.1 µM): < 7.00
- pIC50 (second compound 0.316 µM): < 7.00
- pIC50 (second compound 1 µM): < 7.00
- pIC50 (second compound 3.16 µM): < 7.00
- pIC50 (second compound 10 µM): < 7.00
- viability, T/C (second compound 0.0316 µM, first compound 0.000316 µM): 89.5%
- viability, T/C (second compound 0.0316 µM, first compound 0.001 µM): 79.8%
- viability, T/C (second compound 0.0316 µM, first compound 0.00316 µM): 79.5%
- viability, T/C (second compound 0.0316 µM, first compound 0.01 µM): 106%
- viability, T/C [1]: 89%
- viability, T/C [2]: 101%
- viability, T/C (second compound 0.1 µM, first compound 0.000316 µM): 91.8%
- viability, T/C (second compound 0.1 µM, first compound 0.001 µM): 87.4%
- viability, T/C (second compound 0.1 µM, first compound 0.00316 µM): 105%
- viability, T/C (second compound 0.1 µM, first compound 0.01 µM): 80.9%
- viability, T/C [7]: 70.2%
- viability, T/C [8]: 86.4%
- viability, T/C (second compound 0.316 µM, first compound 0.000316 µM): 95.4%
- viability, T/C (second compound 0.316 µM, first compound 0.001 µM): 92.9%
- viability, T/C (second compound 0.316 µM, first compound 0.00316 µM): 101%
- viability, T/C (second compound 0.316 µM, first compound 0.01 µM): 88%
- viability, T/C [13]: 108%
- viability, T/C [14]: 80.4%
- viability, T/C (second compound 1 µM, first compound 0.000316 µM): 88.3%
- viability, T/C (second compound 1 µM, first compound 0.001 µM): 102%
- viability, T/C (second compound 1 µM, first compound 0.00316 µM): 78.1%
- viability, T/C (second compound 1 µM, first compound 0.01 µM): 97.1%
- viability, T/C [19]: 101%
- viability, T/C [20]: 86.3%
- viability, T/C (second compound 3.16 µM, first compound 0.000316 µM): 86.8%
- viability, T/C (second compound 3.16 µM, first compound 0.001 µM): 78.6%
- viability, T/C (second compound 3.16 µM, first compound 0.00316 µM): 76.3%
- viability, T/C (second compound 3.16 µM, first compound 0.01 µM): 82.9%
- viability, T/C [25]: 92.4%
- viability, T/C [26]: 82.1%
- viability, T/C (second compound 10 µM, first compound 0.000316 µM): 87.5%
- viability, T/C (second compound 10 µM, first compound 0.001 µM): 84.7%
- viability, T/C (second compound 10 µM, first compound 0.00316 µM): 80.3%
- viability, T/C (second compound 10 µM, first compound 0.01 µM): 71.8%
- viability, T/C [31]: 77.3%
- viability, T/C [32]: 84.8%
